Source: patent EP4332093A1, “SALT CONTAINING PIPERAZINE POLYCYCLIC DERIVATIVE, CRYSTAL FORM THEREOF, PREPARATION METHOD THEREFOR, AND USE THEREOF” (Shanghai Hansoh Biomedical Co., Ltd., priority 2021, dated 2022)
Where two headings read alike, the source gives them in different places.

Experiments:
5-HT2A receptor [1] = target: T1, 5-HT2A receptor (Homo sapiens, UniProt P28223); assay: Radioligand binding assay, 5-HT2A receptor ([3H]-Ketanserin); design: purchased PerkinElmer; conditions: Human 5-HT2A Receptor membrane, [3H]-Ketanserin 2 nM; read-out: 5HT-2A Binding IC50
Description: Determination of the binding ability of the compounds of the
present invention to 5-HT2A receptor
The objective of this test example is to determine the affinity of the compounds for 5-HT2A receptor.
Experimental buffer: 50 mM Tris-HCl pH 7.4, 4 mM CaCl2; washing liquor: 50 mM Tris-HCl pH 7.4, stored at 4°C; 0.5% PEI solution: 0.5 g PEI dissolved in 100 mL ddH2O, 4°C storage of spare.
5 µL of the test compounds (0.005 nM to 100 nM, 10 concentrations in total) and 100 µL of buffer were added to a 96-well assay plate. 1.5 µL of cell membrane and 300 µL of buffer were added to each well, and the plate was shaken at 600 rpm for 5 minutes. 100 µL of a mixed solution of buffer and [^3H]-Ketanserin (final concentration of 2 nM) was added to the reaction system per well, and the plate was shaken at 600 rpm for 5 minutes and incubated at 27°C for 30 min. The […]-96 GF/B filter plate pre-incubated with 0.5% PEI for 1 h was washed twice with the buffer (1 mL/well). The cell membrane suspension was added to the […]-96 GF/B filter plate, washed 4 times, and incubated at 55°C for 10 min. 40 µL of ULTIMA GOLD was added to each well, and liquid scintillation counting was carried out.
(§1) The CPM (Counts per minute) values were determined by TopCount. […] The 10 concentrations of the compound were from 100 nM to 0.005 nM after 3-fold dilution of the reaction system. The percent inhibition rate and ten-point concentration data were fitted to the parametric nonlinear logistic equation by using GraphPad prism to calculate the IC50 values of the compound.

dopamine D3 receptor = target: T2, dopamine D3 receptor (Homo sapiens, UniProt P35462); assay: Radioligand binding assay, dopamine D3 receptor ([3H]-methylspiperone); conditions: Human Dopamine D3 Receptor membrane, [3H]-methylspiperone 0.5 nM
T2 construct: purchased PerkinElmer ES-173-M400UA
Description: Determination of the binding ability of the compounds of the present invention to dopamine D3 receptor
The objective of this test example is to determine the affinity of the compounds for dopamine D3 receptor.
Experimental buffer: 50 mM Tris-HCl pH 7.4, 10 mm MgCl2; washing liquor: 50 mM Tris-HCl pH 7.4, stored at 4°C; 0.5% PEI solution: 0.5 g PEI dissolved in 100 mL ddH2O, 4°C storage of spare.
5 µL of the test compounds (0.005 nM to 100 nM, 10 concentrations in total) and 100 µL of buffer were added to a 96-well assay plate. 1 µL of cell membrane and 300 µL of buffer were added to each well, and the plate was shaken at 600 rpm for 5 minutes. 100 µL of a mixed solution of buffer and [^3H]-methylspiperone (final concentration of 0.5 nM) was added to the reaction system per well, and the plate was shaken at 600 rpm for 5 minutes and incubated at 27°C for 30 min. The UNIFII,TER-96 GF/B filter plate pre-incubated with 0.5% PEI for 1 h was washed twice with the buffer (1 mL/well). The cell membrane suspension was added to the […]-96 GF/B filter plate, washed 4 times, and incubated at 55°C for 10 min. 40 µL of ULTIMA GOLD was added to each well, and liquid scintillation counting was carried out.
as §1

D3 receptor = target: T3, D3 receptor (Homo sapiens, UniProt P35462); assay: cAMP content in cells stably expressing D3 receptors (CHO-D3, forskolin, HTRF); type: cell-based
T3 construct: expressed in transfected cells
Description: Determination of the effect of the compounds of the present invention on cAMP content in cells stably expressing D3 receptors
To determine the activation effect of the compounds on D3 receptor.
• 1. Preparation of the buffer: 1* HBSS + 20mM HEPES + 0.1% BSA + 500 µM IBMX. Complete medium: Ham's F12K + 10% fetal bovine serum +1* penicillin-streptomycin + 400 µg/mL G418. • 2. CHO-D3 cells were cultured in the complete medium at 37°C, 5% CO2. After TrypLE digestion, the cells were resuspended in the experimental buffer, and seeded into a 384-well cell culture plate at a seeding density of 8000 cells per well. • 3. The experimental buffer (1*HBSS, 0.1% BSA, 20 mM HEPES and 500 µM IBMX) was prepared. The compound was diluted with the buffer. 2.5 µL of the compound solution was added to each well, and the plate was incubated at 37°C for 10 minutes. The forskolin was diluted to 8 µM (8*) with the experimental buffer. 2.5 µL of the diluted 8* forskolin was added, and the plate was incubated at 37°C for 30 minutes. cAMP-d2 and Anti-cAMP-Eu^3+ were thawed, and diluted by 20-fold with the lysis buffer. 10 µL of cAMP-d2 was added to the experimental well, followed by the addition of 10 µL of Anti-cAMP-Eu^3+. The reaction plate was centrifuged at 200 g for 30 s at room temperature, and left to stand at 25°C for 1 h. Data was collected using Envision.

5-HT2A receptor [2] = target: T1, 5-HT2A receptor; assay: Calcium ion mobility in cells stably expressing 5-HT2A receptors (Flp-In-CHO-5HT2A, FLIPR); type: cell-based; design: expressed in transfected cells; conditions: Flp-In-CHO-5HT2A stable pool, 5HT stimulation
Description: Determination of the effect of the compounds of the present invention on calcium ion mobility in cells stably expressing 5-HT2A receptors
To determine the inhibitory effect of the compounds on 5-HT2A receptor.
• 1) Preparation of the buffer: 1 x HBSS, 20 mM HEPES, 2.5 mM probenecid (probenecid was 400 mM stock in 1 M NaOH), 0.1% BSA. Probenecid and BSA were added fresh on the day of the experiment. Experimental buffers include dye buffer and compound dilution buffer. • 2) Cell culture medium: Ham's F-12K + 10% fetal bovine serum + 600 µg/ml hygromycin B + 1* penicillin-streptomycin. Seeding medium: Ham's F-12K + 10% dialysis serum; Assay buffer: 1 x HBSS + 20 mM HEPES; Cell line: Flp-In-CHO-5HT2A stable pool. • 3) The cells were cultured in the complete medium at 37°C, 5% CO2 to 70%-90% confluency. The cells were digested with TrypLE, seeded to the 384-well assay plate at a density of 1 × 10^4 cells/well, and incubated for 16 to 24 hours (at least overnight). • 4) 20X Component A was thawed to room temperature, diluted to 2X working concentration (containing 5mM Probenecid) with the assay buffer, and placed at room temperature for later use. • 5) The cell culture plate was taken out and left to stand at room temperature for 10 min. […] 10 µl of diluted 5HT was add to each experimental well using FLIPR Tetra, and the values were read.
The calcium signal values were determined by FLIPR. The calculated output for each sampling time point in the experiment was the ratio of the 340/510 nm wavelength signals to 380/510 nm wavelength signals. The maximum minus minimum calculation was derived from the ratio signal curve. The percent inhibition rate and ten-point concentration data were fitted to the parametric nonlinear logistic equation by using GraphPad prism to calculate the IC50 values of the compound.

[3] = Pharmacokinetic assay in Balb/c mice (plasma and brain tissue); type: in vivo; conditions: male, mouse, po, p.o. 5 mg/kg; for AUC(0-t): read-out: Area under curve AUC0-t; for Tmax: read-out: Peak time tmax; for Cmax: read-out: Plasma concentration Cmax; for AUC(0-inf): read-out: Area under curve AUC0-∞; for MRT: read-out: Average residence time MRT; for half-life: read-out: Half life t1/2 (converted)
Description: Balb/c mice were used as test animals. The pharmacokinetic behavior in mouse body (plasma and brain tissue) of the compounds of Examples of the present invention was studied at an oral administration dose of 5 mg/kg.
Compounds of the Examples of the present invention, prepared by the applicant.
Male Balb/c mice (12 mice per group), purchased from Shanghai Jiesijie Laboratory Animal Co., LTD, with Certificate No.: SCXK (Shanghai) 2013-0006 N0.311620400001794.
The test compound was dissolved in 0.5% CMC-Na (1% Tween80) by sonication to formulate a clear solution or homogeneous suspension.
After an overnight fast, male Balb/c mice (12 mice per group) were administered p.o. with the test compound at an administration dose of 5 mg/kg and an administration volume of 10 mL/kg.
0.2 mL of blood was taken from the heart of the mouse before administration and at 1, 2, 4, 8 and 24 hours after administration, and the mice were sacrificed with CO2. The samples were stored in EDTA-K2 tubes, and centrifuged for 6 minutes at 4°C, 6000 rpm to separate the plasma. The plasma samples were stored at -80°C. Whole brain tissue was taken out, weighed, placed in a 2 mL centrifuge tube, and stored at -80°C.
• 1) 160 µL of acetonitrile was added to 40 µL of the plasma sample for precipitation, and then the mixture was centrifuged for 5 to 20 minutes at 3500 × g. • 2) 90 µL of acetonitrile containing internal standard (100 ng/mL) was added to 30 µL of the plasma and brain homogenate sample for precipitation, and then the mixture was centrifuged for 8 minutes at 13000 rpm. • 3) 70 µL of water was added to 70 µL of the treated supernatant and mixed by vortex for 10 minutes. 20 µL of the supernatant was taken to analyze the concentration of the test compound by LC/MS/MS. LC/MS/MS analytical instrument: AB Sciex API 4000 Qtrap.
• Liquid chromatography condition: Shimadzu LC-20AD pump • Chromatographic column: Agilent ZORBAX XDB-C18 (50×2.1 mm, 3.5 µm); Mobile phase: Eluent A was 0.1% formic acid in water, and Eluent B was acetonitrile • Flow rate: 0.4 mL/min • Elution time: 0-4.0 minutes, the eluent is as follows:
The main parameters of pharmacokinetics were calculated by WinNonlin 6.1. Table 17: Experimental results of pharmacokinetic assay in mice

T3 sequence (P35462 whole entry): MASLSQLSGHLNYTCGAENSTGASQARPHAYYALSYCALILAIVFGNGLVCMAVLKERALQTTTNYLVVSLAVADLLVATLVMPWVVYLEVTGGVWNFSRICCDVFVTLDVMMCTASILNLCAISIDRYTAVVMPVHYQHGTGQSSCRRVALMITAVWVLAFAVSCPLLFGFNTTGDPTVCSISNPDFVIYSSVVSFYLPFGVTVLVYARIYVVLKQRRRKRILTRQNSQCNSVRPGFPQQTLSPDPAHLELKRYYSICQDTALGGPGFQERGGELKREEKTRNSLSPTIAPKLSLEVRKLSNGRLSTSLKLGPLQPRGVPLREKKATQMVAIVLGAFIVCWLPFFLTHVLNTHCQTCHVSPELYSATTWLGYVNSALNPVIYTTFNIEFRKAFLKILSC
T2 sequence (P35462 whole entry): as above
T1 sequence (P28223 whole entry): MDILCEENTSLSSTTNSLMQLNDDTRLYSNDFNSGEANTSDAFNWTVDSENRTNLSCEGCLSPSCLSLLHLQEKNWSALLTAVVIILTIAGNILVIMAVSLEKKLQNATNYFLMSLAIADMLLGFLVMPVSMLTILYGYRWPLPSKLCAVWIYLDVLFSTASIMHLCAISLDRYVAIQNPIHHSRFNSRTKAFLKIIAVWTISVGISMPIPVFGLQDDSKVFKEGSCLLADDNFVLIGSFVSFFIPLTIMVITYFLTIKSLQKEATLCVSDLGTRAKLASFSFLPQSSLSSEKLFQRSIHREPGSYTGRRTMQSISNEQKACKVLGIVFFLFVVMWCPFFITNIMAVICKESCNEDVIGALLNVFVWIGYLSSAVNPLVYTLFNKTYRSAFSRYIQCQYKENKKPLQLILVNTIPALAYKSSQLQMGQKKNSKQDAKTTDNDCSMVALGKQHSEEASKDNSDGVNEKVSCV

Row | Structure (SMILES) | IC50 (5-HT2A receptor [1]) | IC50 (dopamine D3 receptor) | EC50 (D3 receptor) | IC50 (5-HT2A receptor [2]) | AUC(0-t) ([3]; Brain) | Tmax ([3]; Brain) | Cmax ([3]; Brain) | AUC(0-t) ([3]; Plasma) | AUC(0-inf) ([3]; Plasma) | MRT ([3]; Plasma) | half-life ([3]; Plasma) | Tmax ([3]; Plasma) | Cmax ([3]; Plasma) | AUC(0-inf) ([3]; Brain)
1 | CC(C)(O)C(=O)NC1CC(CCN2CCN(c3cccc(Cl)c3Cl)CC2)C1 (centres unmarked) [Example 4A] | 41.5 nM | 0.95 nM | 0.4 nM | 39 nM | – | – | – | – | – | – | – | – | – | –
2 | O=C(N[C@H]1C[C@@H](CCN2CCN(c3cccc(Cl)c3Cl)CC2)C1)C1(O)CC1 [Example 6B, N-(Cis-3-(2-(4-(2,3-dichlorophenyl)piperazin-1-yl)ethyl)cyclobutyl)-1-hydroxycyclo propane-1-carboxamide] | 48.4 nM | 4.37 nM | – | 39 nM | 900 ng·h/mL | 1 h | 361 ng/mL | 2250 ng·h/mL | 2320 ng·h/mL | 2.3 h | 1.6 h | 0.5 h | 961 ng/mL | –
3 | Cc1cnoc1C(=O)N[C@H]1C[C@H](CCN2CCN(c3cccc(Cl)c3Cl)CC2)C1 [Example 13A, N-(Trans-3-(2-(4-(2,3-dichlorophenyl)piperazin-1-yl)ethyl)cyclobutyl)-4-methylisox azole-5-carboxamide] | 1.81 nM | 1.36 nM | 1.1 nM | 11.7 nM | – | – | – | – | – | – | – | – | – | –
4 | Cc1cc(C(=O)NC2CC(CCN3CCN(c4cccc(Cl)c4Cl)CC3)C2)on1 (centres unmarked) [Example 14A] | 1.35 nM | 0.34 nM | 0.9 nM | 4.37 nM | – | – | – | – | – | – | – | – | – | –
5 | O=C(N[C@H]1C[C@H](CCN2CCN(c3cccc(Cl)c3Cl)CC2)C1)c1ccno1 [Example 15A, N-(Trans-3-(2-(4-(2,3-dichlorophenyl)piperazin-1-yl)ethyl)cyclobutyl)isoxazole-5-ca rboxamide] | 0.98 nM | 0.31 nM | 0.7 nM | 3.14 nM | – | – | – | – | – | – | – | – | – | –
6 | C[C@@H]1CN(CCC2CC(NC(=O)C(C)(C)O)C2)CCN1c1cccc(Cl)c1Cl (stereo partly drawn) [Example 22, (R)-N-(3-(2-(4-(2,3-Dichlorophenyl)-3-methylpiperazin-1-yl)ethyl)cyclobutyl)-2-hy droxy-2-methylpropanamide] | 9.63 nM | 2.78 nM | 0.4 nM | – | – | – | – | – | – | – | – | – | – | –
7 | CCN(C)C(=O)NC1CC(CCN2CCN(c3cccc4sccc34)CC2)C1 (centres unmarked) [Example 24, 3-(3-(2-(4-(Benzo[b]thiophen-4-yl)piperazin-1-yl)ethyl)cyclobutyl)-1-ethyl-1-methy lurea] | 6.39 nM | 1.13 nM | 0.9 nM | – | 2190 ng·h/mL | 1 h | 339 ng/mL | 1480 ng·h/mL | 2000 ng·h/mL | 5.7 h | 3.4 h | 0.5 h | 369 ng/mL | 2310 ng·h/mL
8 | O=C(NC1CC(CCN2CCCN(c3cccc(Cl)c3Cl)CC2)C1)c1ccco1 (centres unmarked) [Example 25, N-(3-(2-(4-(2,3-Dichlorophenyl)-1,4-diazepan-1-yl)ethyl)cyclobutyl)furan-2-carbox amide] | 6.35 nM | 0.79 nM | – | – | 1540 ng·h/mL | 1 h | 162 ng/mL | 240 ng·h/mL | 297 ng·h/mL | 5.1 h | 3.25 h | 1 h | 49.7 ng/mL | 1650 ng·h/mL
